In US8859527B2 (priority 2009, dated 2014):
Where two headings read alike, the source gives them in different places.

Experiments:
[1] = water solubility by the method of Chinese Pharmacopoeia 2005; format: physicochemical; conditions: DPT not included
Procedure: HP-β-CD and DPT are prepared into inclusion complexes under different conditions, and the DPT concentration in the inclusion complex is determined by ultraviolet spectrophotometry, and the composition molar ratio of DPT to HP-β-CD in the inclusion complex is further calculated; the water-solubility of the inclusion complex is determined according to the method specified in the examples of Chinese Pharmacopoeia 2005, so that solubility of DPT in this inclusion complex is further calculated.
With regard to the three factors, namely the concentration of HP-β-CD solution, the temperature for inclusion and the duration for inclusion, orthogonal experiments are carried out on three levels (the concentrations of the HP-β-CD solutions are 10%, 20% and 30%; the temperatures are 40° C., 50° C. and 60° C.; the duration is 1 hour, 2 hour and 3 hour), content and solubility of DPT in the inclusion complex are used as the evaluation parameters for the efficacy of inclusion, and the results are shown in Table 3. The solubility is determined by the method specified in the examples in Chinese Pharmacopoeia 2005, and the results are shown in Table 4.
The DPT content in the inclusion complex is determined by ultraviolet spectrophotometry. The solubility is determined by using the method specified in the examples in Chinese Pharmacopoeia 2005, and the results are shown in Table 6.

[2] = test system: Hela (human cervical cancer cell line); experiment: in vitro growth inhibition of tumor cells, Hela; format: cell-based; conditions: for Inhibition effects on in vitro growth: hela, 48 hours
Procedure: (§1) The tumor strains are A-549 (human lung adenocarcinoma cell line), BGC-823 (human gastric cancer cell line), C-6 (rat neurogliocytoma cell line), Hep G2 (human hepatic cancer cell line), HL-60 (human leukemia cell line), K-562 (human erythremia cell line) and Hela (human cervical cancer cell line). […] The drug was prepared as a stock solution of 10^−2 M by using physiological saline and diluted into the test solution in a gradient composed of five concentrations: C1 5×10^−5 M, C2 10^−5 M, C3 10^−6 M, C4 10^−7 M and C5 10^−8 M.
(§2) Experimental method: different tumor cells in exponential growth phase are inoculated in 96-well plates in a certain amount and the selected samples are added after the cells are cultured for 24 hours (suspension cells can be directly added after being inoculated), after the cells are incubated at 37° C. and 5% CO2 for another 48 hours, […] is added for further incubation for another 4 hours, and finally the samples are examined on a microplate reader after dissolving with DMSO.

transplanted tumor Heps = conditions: Heps mice; for Body weight After administration / Tumor inhibition rate / Tumor weight: once every two days, four times
Procedure: (§3) Experimental groups: three dosage groups were set up for DPT, 10, 5 and 2.5 mg/kg; the blank control group: cyclophosphamide (CTX) group, Etoposide group 20 mg/kg.
(§4) Administration route: injection via tail vein, it is administered in a dosage of 0.4 ml/20 g body weight. Administration period: the drug is administrated 24 hours after the inoculation, once every two days for four times in total.
(§5) Experimental methods: 60 ICR mice with standard weight of from 18 to 22 g are inoculated with S-180 or Heps solid tumor according to the test method for transplanted tumors, hypodermic inoculation with 0.2 ml is carried out in the armpit in the anterior limb of every mouse. The body weight is determined 24 hours after the inoculation and they are randomly divided into six groups: the blank control group, the CTX group (20 mg/kg), the Etoposide group (20 mg/kg), the DPT group (10, 5 and 2.5 mg/Kg). The drug is administrated 24 hours after the inoculation once for every two days for 4 times, and tumor-bearing mice are killed on the next after drug withdrawal and their body weights are measured, and the separated tumor mess is weighed, and all of the data are subjected to statistical analyses (t-test).

transplanted tumor S180 = conditions: S180 mice; for Body weight After administration / Tumor weight / Tumor-inhibition rate: once every two days, four times
Procedure: as §3, §4, §5

[3] = test system: C-6 (rat neurogliocytoma cell line); experiment: in vitro growth inhibition of tumor cells, C-6; format: cell-based; conditions: C6; for Inhibition effects on in vitro growth: 48 hours
Procedure: as §1, §2

[4] = test system: HL-60 (human leukemia cell line); experiment: in vitro growth inhibition of tumor cells, HL-60; format: cell-based; conditions: for Inhibition effects on in vitro growth: 48 hours
Procedure: as §1, §2

**Q.** Which “solubility of DPT in water” value [1] does the source give for `COc1cc([C@@H]2c3cc4c(cc3C[C@H]3COC(=O)[C@@H]32)OCO4)cc(OC)c1OC` [DPT, Deoxypodophyllotoxin] here?
**A.** Its value is “about 0.5 mg/L”.

**Q.** And the “inhibition effects compared with Etoposide” value ([2]; Hela, 10^−5 to 10^−8 M)?
**A.** Its value is “significant better than that of Etoposide”.

**Q.** What about the “Inhibition effects on in vitro growth” value ([2]; 5 × 10^−5M) of the same compound?
**A.** Its value is 62.68%.

**Q.** And the “Inhibition effects on in vitro growth” value ([2]; 10^−5M)?
**A.** The value was 49.89%.

**Q.** And the “Inhibition effects on in vitro growth” value ([2]; 10^−6M)?
**A.** Its value is 47.9%.

**Q.** And the “Inhibition effects on in vitro growth” value ([2]; 10^−7M)?
**A.** The value was 46.57%.

**Q.** And the “Inhibition effects on in vitro growth” value ([2]; 10^−8M)?
**A.** The value was 42.9%.

**Q.** What about the “Body weight Before administration” value (transplanted tumor Heps; 2.5 mg/kg iv group) of the same compound?
**A.** Its value is 20.20 ± 1.48 g.

**Q.** And the “Body weight After administration” value (transplanted tumor Heps; 2.5 mg/kg iv)?
**A.** The value was 24.50 ± 2.22 g.

**Q.** What about the Tumor inhibition rate (transplanted tumor Heps; 2.5 mg/kg iv) of the same compound?
**A.** Its Tumor inhibition rate is 32.10%.

**Q.** What about the Tumor weight (transplanted tumor Heps; 2.5 mg/kg iv) of the same compound?
**A.** The Tumor weight was 1.34 ± 0.29 g.

**Q.** And the “Body weight Before administration” value (transplanted tumor Heps; 5 mg/kg iv group)?
**A.** The value was 20.80 ± 1.40 g.

**Q.** And the “Body weight After administration” value (transplanted tumor Heps; 5 mg/kg iv)?
**A.** The value was 24.00 ± 3.46 g.

**Q.** What about the Tumor inhibition rate (transplanted tumor Heps; 5 mg/kg iv) of the same compound?
**A.** The Tumor inhibition rate was 42.27%.

**Q.** What about the Tumor weight (transplanted tumor Heps; 5 mg/kg iv) of the same compound?
**A.** Its Tumor weight is 1.14 ± 0.15 g.

**Q.** And the “Body weight Before administration” value (transplanted tumor Heps; 10 mg/kg iv group)?
**A.** The value was 21.40 ± 0.84 g.

**Q.** And the “Body weight After administration” value (transplanted tumor Heps; 10 mg/kg iv)?
**A.** Its value is 22.90 ± 2.73 g.

**Q.** And the Tumor inhibition rate (transplanted tumor Heps; 10 mg/kg iv)?
**A.** Its Tumor inhibition rate is 52.09%.

**Q.** What about the Tumor weight (transplanted tumor Heps; 10 mg/kg iv) of the same compound?
**A.** Its Tumor weight is 0.94 ± 0.32 g.

**Q.** What about the “Body weight Before administration” value (transplanted tumor S180; 2.5 mg/kg iv group) of the same compound?
**A.** Its value is 19.70 ± 1.16 g.

**Q.** What about the “Body weight After administration” value (transplanted tumor S180; 2.5 mg/kg iv) of the same compound?
**A.** Its value is 24.90 ± 2.47 g.

**Q.** What about the Tumor weight (transplanted tumor S180; 2.5 mg/kg iv) of the same compound?
**A.** The Tumor weight was 1.41 ± 0.30 g.

**Q.** What about the Tumor-inhibition rate (transplanted tumor S180; 2.5 mg/kg iv) of the same compound?
**A.** Its Tumor-inhibition rate is 23.44%.

**Q.** What about the “Body weight Before administration” value (transplanted tumor S180; 5 mg/kg iv group) of the same compound?
**A.** Its value is 19.00 ± 0.94 g.

**Q.** What about the “Body weight After administration” value (transplanted tumor S180; 5 mg/kg iv) of the same compound?
**A.** Its value is 22.50 ± 2.55 g.

**Q.** And the Tumor weight (transplanted tumor S180; 5 mg/kg iv)?
**A.** Its Tumor weight is 1.08 ± 0.26 g.

**Q.** And the Tumor-inhibition rate (transplanted tumor S180; 5 mg/kg iv)?
**A.** The Tumor-inhibition rate was 41.67%.

**Q.** What about the “Body weight Before administration” value (transplanted tumor S180; 10 mg/kg iv group) of the same compound?
**A.** Its value is 19.40 ± 1.71 g.

**Q.** And the “Body weight After administration” value (transplanted tumor S180; 10 mg/kg iv)?
**A.** Its value is 22.50 ± 2.07 g.

**Q.** And the Tumor weight (transplanted tumor S180; 10 mg/kg iv)?
**A.** Its Tumor weight is 0.84 ± 0.27 g.

**Q.** What about the Tumor-inhibition rate (transplanted tumor S180; 10 mg/kg iv) of the same compound?
**A.** The Tumor-inhibition rate was 54.53%.

**Q.** What about the “Inhibition effects on in vitro growth” value ([3]; 5 × 10^−5M) of the same compound?
**A.** The value was 84.41%.

**Q.** What about the “Inhibition effects on in vitro growth” value ([3]; 10^−5M) of the same compound?
**A.** Its value is 58.54%.

**Q.** What about the “inhibition effects compared with Etoposide” value ([3]; 10^−5 to 10^−8 M) of the same compound?
**A.** The value was “significant better than that of Etoposide”.

**Q.** And the “Inhibition effects on in vitro growth” value ([3]; 10^−6M)?
**A.** The value was 55.01%.

**Q.** What about the “Inhibition effects on in vitro growth” value ([3]; 10^−7M) of the same compound?
**A.** The value was 54.11%.

**Q.** What about the “Inhibition effects on in vitro growth” value ([3]; 10^−8M) of the same compound?
**A.** Its value is 52.34%.

**Q.** And the “Inhibition effects on in vitro growth” value ([4]; 5 × 10^−5M)?
**A.** The value was 57.37%.

**Q.** What about the “Inhibition effects on in vitro growth” value ([4]; 10^−5M) of the same compound?
**A.** Its value is 39.41%.

**Q.** What about the “inhibition effects compared with Etoposide” value ([4]; 10^−5 to 10^−8 M) of the same compound?
**A.** Its value is “significant better than that of Etoposide”.

**Q.** And the “Inhibition effects on in vitro growth” value ([4]; 10^−6M)?
**A.** The value was 36.83%.

**Q.** And the “Inhibition effects on in vitro growth” value ([4]; 10^−7M)?
**A.** Its value is 29.27%.

**Q.** What about the “Inhibition effects on in vitro growth” value ([4]; 10^−8M) of the same compound?
**A.** The value was 14.96%.
